Results as given in ChEMBL document CHEMBL6153084, “The development of α, β-unsaturated lactam-based andrographolide derivatives as anti-gastric cancer agents with the ability of inhibiting the ERK/c-Fos/Jun pathway” (Eur J Med Chem, 2025).
Activity calls are given as the source filed them. No cut-off for these calls is given here.

Columns and labels:
HGC-27 = assay: Antiproliferative activity against human HGC-27 cells assessed as inhibition of cell growth incubated for 48 hrs by MTT assay; format: functional, cell-based; details: HGC-27, 48 h
MGC-803 [1] = assay: Induction of apoptosis in human MGC-803 cells assessed as necrotic cells at 2 uM incubated for 48 hrs by Annexin V-FITC/PI staining based flow cytometry analysis (reference value: 0.83%); format: functional
MGC-803 [2] = assay: Antiproliferative activity against human MGC-803 cells assessed as reduction in clone areas incubated for 48 hrs […]; format: functional, cell-based; details: dose <= 2.0 µM
MGC-803 [3] = assay: Induction of apoptosis in human MGC-803 cells assessed as early apoptotic cells at 4 uM incubated for 48 hrs by Annexin V-FITC/PI staining based flow cytometry analysis (reference value: 0.30%); format: functional
MGC-803 [4] = assay: Induction of apoptosis in human MGC-803 cells assessed as upregulation of cleaved PARP expression at 1 to 4 uM incubated for 24 hrs by Western blot analysis; format: functional, cell-based; details: dose 1-4 µM
MGC-803 [5] = assay: Induction of apoptosis in human MGC-803 cells assessed as upregulation of Bax expression at 1 to 4 uM incubated for 24 hrs by Western blot analysis; format: functional, cell-based; details: dose 1-4 µM
MGC-803 [6] = assay: Induction of cell cycle arrest in human MGC-803 cells assessed as accumulation of cells at G2/M phase at 0.25 uM incubated for 48 hrs by PI staining based flow cytometry analysis; format: functional
MGC-803 [7] = assay: Downregulation of FABP3 mRNA level in human MGC-803 cells at 4 uM incubated for 24 hrs by RT-qPCR analysis; format: functional, cell-based
PC-3 = assay: Antiproliferative activity against human PC-3 cells assessed as inhibition of cell growth incubated for 24 to 72 hrs by MTT assay; format: functional, cell-based; details: time 24-72 hrs
MGC-803 [8] = assay: Induction of cell cycle arrest in human MGC-803 cells assessed as accumulation of cells at G2/M phase at 0.5 uM incubated for 48 hrs by PI staining based flow cytometry analysis; format: functional
MGC-803 [9] = assay: Induction of ROS accumulation in human MGC-803 cells assessed as increase in fluorescence intensity at 1 to 4 uM incubated for 48 min by DCFH-DA and PI staining based microscopic analysis; format: functional, cell-based; details: dose 1-4 µM
[10] = Potency index, ratio of andrographolide IC50 to test compound IC50 for antiproliferative activity against human MGC-803 cells assessed as inhibition of cell growth incubated for 24 to 72 hrs by MTT assay; format: functional; details: time 24-72 hrs
AGS = assay: Antiproliferative activity against human AGS cells assessed as inhibition of cell growth incubated for 48 hrs by MTT assay; format: functional, cell-based
MGC-803 [11] = assay: Lipid-lowering activity in human MGC-803 cells assessed as reduction in lipid droplet accumulation by Oil Red O staining based analysis; format: functional, cell-based; details: dose 1-4 µM
MGC-803 [12] = assay: Downregulation of ACAT2 mRNA level in human MGC-803 cells at 4 uM incubated for 24 hrs by RT-qPCR analysis; format: functional, cell-based
MGC-803 [13] = assay: Downregulation of c-FOS mRNA level in human MGC-803 at 4 uM incubated for 24 hrs by RT-qPCR analysis; format: functional, cell-based

IC50 (AGS): 5.24 µM
SMILES: C=C1CC[C@@H]2[C@](C)(CO)[C@H](O)CC[C@@]2(C)[C@@H]1/C=C/C1=CC(=C/c2ccc(C)cc2)/NC1=O
IC50 (HGC-27): 6.5 µM
Activity (MGC-803 [1]): 12.9%
Activity (MGC-803 [2]): Dose-dependent-effect
Activity (MGC-803 [3]): 12.4%
Activity (MGC-803 [4]): Active
Activity (MGC-803 [5]): Active
Activity (MGC-803 [6]): 9.59%
Activity (MGC-803 [7]): Active
Activity (PC-3): inactive
Activity (MGC-803 [8]): 14.5%
Activity (MGC-803 [9]): Active
Ratio IC50 [10]: ~14
Activity (MGC-803 [11]): Dose-dependent-effect
Activity (MGC-803 [12]): Active
Activity (MGC-803 [13]): Active
